We go through 2 compounds from patent US8895727B2, “Method for preparation of fluorine-18-labeled flumazenil using diaryliodonium salt precursor” (priority 2011, dated 2014).

A short description of this data set: Stability of diaryliodonium salt precursors under heating and base conditions (HPLC of by-products I-mazenil and H-mazenil). Type of data set: physicochemical. The settings on record: for relative instability of precursor (stability of 8f set forth to be 1.00): 150° C., 15 min, K2.2.2./K2CO3 in dimethylformamide, without fluorine-18, ratio relative to 8f (FIG. 6). The procedure:
Contrary to the expectation that the diaryliodonium salt precursors (8b to 8e) could be labeled at higher yields than precursor 8a thanks to their higher electron densities, a lower labeling yield of fluorine18 was detected for them at high temperatures in the presence of a base. This might be accounted by the significance of the stability of the precursors. To verify this, the precursors were analyzed for stability in the […] to examine the reactivity of each precursor. In the following Reaction Scheme 2, the degradation of each diaryliodonium salt precursor in the presence of base under a heating condition is illustrated. As shown, two compounds I-mazenil (9) and H-mazenil (10) are formed, and their concentrations reflect the stability of the diaryliodonium salt precursor.
The diaryliodonium salt precursors whose aromatic rings are richer in electron density, compared to phenyl-mazenil-iodonium salt (8a), are more apt to be affected by the reaction conditions for aromatic fluorination with fluorine-18. […] To examine the selectivity and stability of the diaryliodonium salts, the production of the by-products I-mazenil (9) and H-mazenil(10) which are degraded from the precursors due to their instability in a condition free of fluorine-18 was analyzed using HPLC. […]
After each diaryliodonium salt precursor was thermally treated 150° C. for 15 min in the presence of kryptofix2.2.2./potassium carbonate (K2.2.2./K2CO3) in dimethylformamide, without fluorine-18, measurement was made of the concentrations of 1-mazenil (9) and H-mazenil (10) to evaluate the stability of each precursor (FIG. 6). In addition, the labeling reactivity of the diaryliodonium salt precursors into [19F]flumazenil was assessed by reacting them with cesium fluoride at 90° C. for 120 min in dimethylformamide (FIG. 7). […]

On to `CCOC(=O)c1ncn2c1CN(C)C(=O)c1cc([I+]c3ccccc3)ccc1-2.Cc1ccc(S(=O)(=O)[O-])cc1` [Precursor 8a, ethyl 8-phenyl(iodonium tosylate)-5,6-dihydro-5-methyl-6-oxo-4H-imidazo[1,5-a][1,4]benzodiazepine-3-carboxylate], for which the “relative instability of precursor (stability of 8f set forth to be 1.00)” value turned out to be 1.11. On to `CCOC(=O)c1ncn2c1CN(C)C(=O)c1cc([I+]c3ccc(C)cc3)ccc1-2.Cc1ccc(S(=O)(=O)[O-])cc1` [Precursor 8f, ethyl 8-(4-methylphenyl)(iodonium tosylate)-5,6-dihydro-5-methyl-6-oxo-4H-imidazo[1,5-a][1,4]benzodiazepine-3-carboxylate], for which the “relative instability of precursor (stability of 8f set forth to be 1.00)” value came to 1.00. The “stability among the diaryliodonium salt precursors” value (potassium carbonate and 150° C., similar results with TBAHCO3 and TBAOH (FIG. 6)) is on record as “the most stable”.
